Patent publication US5281613A, “Heterocyclic compounds” (Imperial Chemical Industries PLC, priority 1991, dated 1994)

Columns and labels:
[1] = biological target: T1, AII receptors (guinea pig adrenal gland cell surface membrane fraction) (Cavia porcellus, UniProt Q9WV26); test: Test A: in vitro displacement of radiolabelled AII binding to guinea pig adrenal gland cell surface membranes; settings: read-out: IC50 (concentration for 50% displacement of radiolabelled AII binding)
T1 construct: from tissue; host or cells: guinea pig adrenal gland, cell surface membrane fraction
T1 sequence (Q9WV26 1-359): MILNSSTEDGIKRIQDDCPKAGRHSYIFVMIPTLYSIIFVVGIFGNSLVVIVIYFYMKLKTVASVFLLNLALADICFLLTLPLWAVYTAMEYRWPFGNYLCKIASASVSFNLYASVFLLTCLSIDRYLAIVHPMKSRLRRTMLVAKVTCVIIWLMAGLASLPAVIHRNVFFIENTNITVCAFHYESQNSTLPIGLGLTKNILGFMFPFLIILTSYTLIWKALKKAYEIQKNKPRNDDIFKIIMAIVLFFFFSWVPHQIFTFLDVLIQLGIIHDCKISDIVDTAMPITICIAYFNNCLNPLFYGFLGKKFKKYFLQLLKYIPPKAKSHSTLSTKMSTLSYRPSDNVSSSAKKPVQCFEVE
Description: The antagonism of one or more of the physiological actions of AII and, in particular, the antagonism of the interaction of AII with the receptors which mediate its effects on a target tissue, may be assessed using one or more of the following, routine laboratory procedures:
This in vitro procedure involves the incubation of the test compound initially at a concentration of 100 micromolar (or less) in a buffered mixture containing fixed concentrations of radiolabelled AII and a cell surface membrane fraction prepared from a suitable angiotensin target tissue. In this test, the source of cell surface membranes is the guinea pig adrenal gland which is well known to respond to AII. Interaction of the radiolabelled AII with its receptors (assessed as radiolabel bound to the particlate membrane fraction following removal of unbound radiolabel by a rapid filtration procedure such as is standard in such studies) is antagonized by compounds which also bind to the membrane receptor sites and the degree of antagonism (observed in the test as displacement of membrane-bound radioactivity) is determined readily by comparing the receptor-bound radioactivity in the presence of the test compound at the specified test concentration with a control value determined in the absence of the test compound. […]

[2] = test system: angiotensin II-induced pressor responses; test: Test C: antagonism of angiotensin II-induced pressor responses in rats; assay type: in vivo; settings: iv, rat, i.v. administration
Source text: The antagonism of one or more of the physiological actions of AII and, in particular, the antagonism of the interaction of AII with the receptors which mediate its effects on a target tissue, may be assessed using one or more of the following, routine laboratory procedures: Test C This in vivo test involves using terminally-anaesthetised or conscious rats in which an arterial catheter has been implanted under anaesthesia for the measurement of changes in blood pressure. The AII antagonistic effects of the test compound following oral or parenteral administration, are assessed against angiotensin II-induced pressor responses. To ensure that the effect is specific, the effect of the test compound on vasopressin-induced pressor responses may also be determined in the same preparation.

IC50 [1]: 30 nM
Compound: CCc1cc(OCc2ccc3oc(-c4ccccc4-c4nnn[nH]4)c(Br)c3c2)c2c(n1)CCCC2.Cl [Example 8, 4-[(3-bromo-2-(2-(1H-tetrazol-5-yl)phenyl)benzofuran-5-yl)methoxy]-2-ethyl-5,6,7,8-tetrahydroquinoline hydrochloride]
ED50 [2]: 8.2 mg/kg
